Assay results taken from patent publication US20200077655A1, “Use of an Acyclic Picolinamide Compound as a Fungicide for Control of Phytopathogenic Fungi in Orchard, Vineyard and Plantation Crops” (Dow AgroSciences LLC, priority 2017, published 2020).

What was measured:
Assay type in all cases: in vivo
[1] = test system: Rhizopus stolonifer (RIZPST); experiment: Field microplot assessment on Rhizopus rot on apricots; conditions: field grown apricots
From the text: A field trial assessing the utility of Compound I on rot diseases of stone fruits was done using apricots in a microplot method, part of an experimental trial designed as a randomized complete block with four replications. In a microplot method, two mature fruits on a single branch or cluster of fruits were selected for each replication (for a total of 10 replications) instead of using an entire replication. Colored flagging identified treatments. Fungicidal treatments containing Compound I, applied in a 5% EC formulation and tank mixed with an adjuvant (Trycol, 50% w/w at 0.2% v/v), were sprayed on apricots (PRNAR) at rates of 50, 100, and 150 grams of active ingredient per hectare (g ai/ha). The applications to the selected mature apricots were done at 7 days before harvest using a hand held manual spray bottle at a water volume of 500 L/ha. One day after application, a ZipLoc plastic bag was placed over the fruit or fruit cluster and an inoculation mix of MONIFC (Rhizopus was from natural population present in the orchard) was sprayed inside covering the fruits. The plastic bags were removed after 24 hours. At harvest, the fruits were collected in the field and placed in plastic Tupperware containers. 150 mL of de-ionized water was poured in the bottom of the Tupperware containers and the fruits were sprayed with a light mist of water. The containers were brought to the lab, enclosed in a large trash bag to keep the humidity high, and incubated on a lab bench at approximately 23° C. Visual disease incidence was assessed during the trial at 9 and 16 days after application. Area under the disease progress curve (AUDPC) was calculated for each plot using the sets of recorded incidence data. Relative AUDPC (% control based on AUDPC) was calculated as percent of the nontreated control.

[2] = test system: Erysiphe necator (UNCINE); experiment: Field assessment of grape powdery mildew; conditions: grapes, 5% EC + Trycol
From the text: A fungicidal treatment containing Compound I, applied in a 5% EC formulation and tank mixed with an adjuvant (Trycol, 50% w/w at 0.2% v/v), was sprayed on the plant canopy of grape plants (VITVI, Chardonnay variety) at rates of 50, 100 and 150 grams of active ingredient per hectare (g ai/ha). The trial was based on six foliar applications during the growing season at approximately 10 day intervals with natural infections in open field conditions. The treatment was part of an experimental trial designed as a randomized complete block with four replications and a plot of approximately 3.0×7.0 m. Formulations of compound I were applied at water volume of 1000 L/ha, using a self-propelled multi-plot track sprayer (TRACTAIR, Andreoli Engineering) and pressurized at 400 kPa.
Disease evaluations were recorded as percent of leaves and fruit with disease (incidence) and percent diseased area on leaves and fruit (severity, using 100 random leaves and fruit bunches. Grape powdery mildew was assessed three times, with the initial assessment at 2 days after the fourth application. Area under the disease progress curve (AUDPC) was calculated for each plot using the sets of recorded severity data. Relative AUDPC (% control based on AUDPC) was calculated as percent of the nontreated control. Results are given in Table 8.

Capnodium sp. (CAPDSP) = experiment: Field assessment of sooty mold on pears
From the text: A 10% SC formulation of Compound I was tank mixed with three different adjuvants: Agnique BP420 (50% w/w at 0.3% v/v), Ethomeen T18H (50% w/w at 0.15% v/v) and Trycol (50% w/w at 0.3% v/v). Formulations of compound I were sprayed on the plant canopy of pear trees (Highland variety) of approximately 2.5 m in height at rates of 100, 150 and 200 grams of active ingredient per hectare (g ai/ha). The trial was based on six foliar applications during the growing season at approximately 12 day intervals with natural pear scab and sooty mold infections in open field conditions. The treatment was part of an experimental trial designed as a randomized complete block with four replications and a plot of approximately 3×5 m. Formulations of compound I were applied with a SOLO mistblower sprayer at a water volume of 1500 L/ha.
For VENTPI evaluation, percent control was calculated based on incidence and severity in fruit assessment vs the nontreated control on a random selection of 50 fruits per plot. […] Percent control for both diseases was calculated at 11DAAE, 7DAAF and 15DAAF.

[3] = test system: Mycosphaerella fijiensis (MYCOFI); experiment: Field assessment of black sigatoka on banana; conditions: bananas; for Area Under Disease Progression Curve (AUDPC) from severity assessments: 52-59 days after application; for Percent control calculated from severity percentage: 52 days after application
Procedure: Aliquots of a 5% EC formulation of compound I were diluted with water and mixed with Spraytex CT mineral oil (6 L CP/Ha) to achieve active ingredient rates of 25, 50, 100 and 150 g ai/Ha. These treatments were delivered to the foliar affected area of single leaves (application volume of 40 L/Ha) by means of an Aerograph spayer through a plastic molding with an application area of 9×12 centimeters. A single application was delivered to leaf 1 (preventive and very early curative), and leaf 3 (curative effect). Experimental design was based on a randomized complete block, and 4 replications. MYCOFI symptoms resulted from natural inoculation and epidemic development.
Percent disease control was calculated using the ratio of disease severity on treated leaves relative to untreated leaves. Black sigatoka infection was assessed five times during the trial: 31 days after application (31DAA), 38DAA, 45DAA, 52DAA and 59DAA. Area under the disease progress curve (AUDPC) was calculated for each plot using the sets of recorded severity data. Relative AUDPC (% control based on AUDPC) was calculated as percent of the nontreated control.

Structure (SMILES): COc1ccnc(C(=O)N[C@@H](C)C(=O)O[C@@H](C)C(c2ccc(F)cc2)c2ccc(F)cc2)c1OC(C)=O [Compound I, (S)-1,1-bis(4-fluorophenyl)propan-2-yl (3-acetoxy-4-methoxypicolinoyl)-L-alaninate]
- Percent control (AUDPC) from fruit incidence, RIZPST ([1]; 50 g ai/ha): B (51-75)
- Percent control (AUDPC) from fruit incidence, RIZPST ([1]; 100 g ai/ha): C (26-50)
- Percent control (AUDPC) from fruit incidence, RIZPST ([1]; 150 g ai/ha): C (26-50)
- Percent control (AUDPC) from bunch infection assessments ([2]; 50 g ai/ha): B (51-75)
- Percent control (AUDPC) from bunch infection assessments ([2]; 100 g ai/ha): B (51-75)
- Percent control (AUDPC) from bunch infection assessments ([2]; 150 g ai/ha): A (76-100)
- Percent control (AUDPC) from leaf infection assessments ([2]; 50 g ai/ha): A (76-100)
- Percent control (AUDPC) from leaf infection assessments ([2]; 100 g ai/ha): A (76-100)
- Percent control (AUDPC) from leaf infection assessments ([2]; 150 g ai/ha): A (76-100)
- Percent control CAPDSP, incidence in leaf assessment (Capnodium sp. (CAPDSP); 100 g ai/ha, adjuvant Agnique BP420 (first such line, r11), 15 days after final application): A (76-100)
- Percent control CAPDSP, incidence in leaf assessment (Capnodium sp. (CAPDSP); 100 g ai/ha, adjuvant Agnique BP420 (second such line, r13), 15 days after final application): A (76-100)
- Percent control CAPDSP, incidence in leaf assessment (Capnodium sp. (CAPDSP); 100 g ai/ha, adjuvant ETHOMEEN, 15 days after final application): A (76-100)
- Percent control CAPDSP, incidence in leaf assessment (Capnodium sp. (CAPDSP); 100 g ai/ha, adjuvant None, 15 days after final application): A (76-100)
- Percent control CAPDSP, incidence in leaf assessment (Capnodium sp. (CAPDSP); 100 g ai/ha, adjuvant Trycol, 15 days after final application): A (76-100)
- Percent control CAPDSP, incidence in leaf assessment (Capnodium sp. (CAPDSP); 200 g ai/ha, adjuvant Agnique BP420, 15 days after final application): A (76-100)
- Area Under Disease Progression Curve (AUDPC) from severity assessments ([3]; Leaf 1 (Preventive), 25 g ai/ha, untreated 665): 198
- Percent control calculated from severity percentage ([3]; Leaf 1 (Preventive), 25 g ai/ha): B (51-75)
- Area Under Disease Progression Curve (AUDPC) from severity assessments ([3]; Leaf 1 (Preventive), 50 g ai/ha, untreated 665): 211
- Percent control calculated from severity percentage ([3]; Leaf 1 (Preventive), 50 g ai/ha): B (51-75)
- Area Under Disease Progression Curve (AUDPC) from severity assessments ([3]; Leaf 1 (Preventive), 100 g ai/ha, untreated 665): 203
- Percent control calculated from severity percentage ([3]; Leaf 1 (Preventive), 100 g ai/ha): B (51-75)
- Area Under Disease Progression Curve (AUDPC) from severity assessments ([3]; Leaf 1 (Preventive), 150 g ai/ha, untreated 665): 183
- Percent control calculated from severity percentage ([3]; Leaf 1 (Preventive), 150 g ai/ha): B (51-75)
- Area Under Disease Progression Curve (AUDPC) from severity assessments ([3]; Leaf 3 (Curative), 25 g ai/ha, untreated 464): 357
- Percent control calculated from severity percentage ([3]; Leaf 3 (Curative), 25 g ai/ha): C (26-50)
- Area Under Disease Progression Curve (AUDPC) from severity assessments ([3]; Leaf 3 (Curative), 50 g ai/ha, untreated 464): 317
- Percent control calculated from severity percentage ([3]; Leaf 3 (Curative), 50 g ai/ha): C (26-50)
- Area Under Disease Progression Curve (AUDPC) from severity assessments ([3]; Leaf 3 (Curative), 100 g ai/ha, untreated 464): 289
- Percent control calculated from severity percentage ([3]; Leaf 3 (Curative), 100 g ai/ha): C (26-50)
- Area Under Disease Progression Curve (AUDPC) from severity assessments ([3]; Leaf 3 (Curative), 150 g ai/ha, untreated 464): 293
- Percent control calculated from severity percentage ([3]; Leaf 3 (Curative), 150 g ai/ha): C (26-50)
